Patent publication US20210024542A1 (Torcept Therapeutics, Inc., priority 2018, published 2021)
Like-named read-outs stand apart in the source and are kept apart here.

Experiments:
[1] = tested on: MES-SA; assay: OncoPanel cell proliferation assay, MES-SA; format: cell-based, human
Experimental: (§1) Cells were grown in RPMI 1640, 10% FBS, 2 mM L-alanyl-L-glutamine, 1 mM Na pyruvate, or a special medium. Cells were seeded into 384-well plates and incubated in a humidified atmosphere of 5% CO2 at 37° C. Compounds were added the day following cell seeding. At the same time, a time zero untreated cell plate was generated. After a 3-day incubation period, cells were fixed and stained to allow fluorescence imaging of nuclei. Compounds (1 mM stock solutions) were serially diluted in half-log steps from the highest test concentration ([…]), and assayed over 10 concentrations with a maximum assay concentration of 0.1% DMSO. Automated fluorescence microscopy was carried out using a Molecular Devices ImageXpress Micro XL high-content imager, and images were collected with a 4× objective. 16-bit TIFF images were acquired and analyzed with MetaXpress 5.1.0.41 software.
(§2) Cell proliferation was measured by the fluorescence intensity of an incorporated nuclear dye. The output is referred to as the relative cell count, where the measured nuclear intensity is transformed to percent of control (POC) using the following formula: […]
(§3) Cellular response parameters were calculated using nonlinear regression to a sigmoidal single-site dose response model:
(§4) Where y is a response measured at concentration x, A and B are the lower and upper limits of the response, C is the concentration at the response midpoint (EC50), and D is the Hill Slope (Ref. 1).
(§5) EC50 is the test compound concentration at the curve inflection point or half the effective response (parameter C of the fitted curve solution). GI50 is the concentration needed to reduce the observed growth by half (midway between the curve maximum and the time zero value). “Cell Count Activity Area” is an estimate of the integrated area above the curve (Barretina, et al. The Cancer Cell Line Encyclopedia enables predictive modelling of anticancer drug sensitivity. Nature 483: 603-607). […] In rare instances, values <0 or >10 may be observed. […] Curve-fitting, calculations, and report generation was performed using a custom data reduction engine and MathIQ based software (AIM).

[2] = tested on: NCI-H510A; assay: OncoPanel cell proliferation assay, NCI-H510A; format: cell-based, human
Experimental: as §1, §2, §3, §4, §5

[3] = tested on: SNU-C2B; assay: OncoPanel cell proliferation assay, SNU-C2B; format: cell-based, human
Experimental: as §1, §2, §3, §4, §5

[4] = tested on: SNU-5; assay: OncoPanel cell proliferation assay, SNU-5; format: cell-based, human; conditions: for Relative cell count (%) Mean: SNU-5
Experimental: as §1, with “Cells” for “Cells were grown in RPMI 1640, 10% FBS, 2 mM L-alanyl-L-glutamine, 1 mM Na pyruvate, or a special medium. Cells”
as §2, §3, §4
GI50 is the concentration needed to reduce the observed growth by half (midway between the curve maximum and the time zero value). […] In rare instances, values <0 or >10 may be observed. […] Curve-fitting, calculations, and report generation was performed using a custom data reduction engine and MathIQ based software (AIM).

[5] = tested on: OVCAR3; assay: OncoPanel cell proliferation assay, OVCAR3; conditions: for Relative cell count (%) Mean: OVCAR3
Experimental: (§6) Cells were seeded into 384-well plates and incubated in a humidified atmosphere of 5% CO2 at 37° C. Compounds were added the day following cell seeding. At the same time, a time zero untreated cell plate was generated. After a 3-day incubation period, cells were fixed and stained to allow fluorescence imaging of nuclei. Compounds (1 mM stock solutions) were serially diluted in half-log steps from the highest test concentration (1 micromol), and assayed over 10 concentrations with a maximum assay concentration of 0.1% DMSO. Automated fluorescence microscopy was carried out using a Molecular Devices ImageXpress Micro XL high-content imager, and images were collected with a 4× objective. 16-bit TIFF images were acquired and analyzed with MetaXpress 5.1.0.41 software.

[6] = tested on: SK-NEP-1; assay: OncoPanel cell proliferation assay, SK-NEP-1; conditions: for Relative cell count (%) Mean: SK-NEP-1
Experimental: as §6

[7] = Homo sapiens, 72 h, 3-day incubation, read-out: Cell Count EC50
[8] = Homo sapiens, 72 h, 3-day incubation, read-out: Cell Count GI50
[9] = Homo sapiens, 72 h, 3-day incubation, read-out: Cell Count IC50

Compound: CO[C@H]1C[C@@H]2CC[C@@H](C)[C@@](O)(O2)C(=O)C(=O)N2CCCC[C@H]2C(=O)O[C@H]([C@H](C)C[C@@H]2C[C@@H]3C[C@H]2C[C@H]3O)CC(=O)[C@H](C)/C=C(\C)[C@@H](O)[C@@H](OC)C(=O)[C@H](C)C[C@H](C)/C=C/C=C/C=C/1C [Formula I, 37R-hydroxynorbornylrapamycin]
- Relative cell count (%) Mean ([1]; 1.00E−01 microM): 28.9%
- Relative cell count (%) Mean ([1]; 1.00E−02 microM): 32.0%
- Relative cell count (%) Mean ([1]; 1.00E−03 microM): 45.0%
- Relative cell count (%) Mean ([1]; 1.01E−04 microM): 93.8%
- Relative cell count (%) Mean ([1]; 3.16E−01 microM): 26.8%
- Relative cell count (%) Mean ([1]; 3.17E−02 microM): 28.6%
- Relative cell count (%) Mean ([1]; 3.17E−03 microM): 37.3%
- Relative cell count (%) Mean ([1]; 3.18E−04 microM): 64.3%
- Relative cell count (%) Mean ([1]; 3.18E−05 microM): 98.1%
- EC50 [1, 7]: 0.322 nM
- GI50 [1, 8]: 0.495 nM
- IC50 [1, 9]: 0.644 nM
- Cell Count Activity Area ([1]; scale 0-10): 5.42
- Relative cell count (%) Mean ([2]; 1.00E+00 microM): 66.2%
- Relative cell count (%) Mean ([2]; 1.00E−01 microM): 62.8%
- Relative cell count (%) Mean ([2]; 1.00E−02 microM): 69.5%
- Relative cell count (%) Mean ([2]; 1.00E−03 microM): 68.9%
- Relative cell count (%) Mean ([2]; 1.01E−04 microM): 77.7%
- Relative cell count (%) Mean ([2]; 3.16E−01 microM): 66.3%
- Relative cell count (%) Mean ([2]; 3.17E−02 microM): 64.7%
- Relative cell count (%) Mean ([2]; 3.17E−03 microM): 72.2%
- Relative cell count (%) Mean ([2]; 3.18E−04 microM): 70.5%
- Relative cell count (%) Mean ([2]; 3.18E−05 microM): 75.7%
- EC50 [2, 7]: 0.00399 nM
- GI50 [2, 8]: 0.83 nM
- IC50 [2, 9]: > 1000 nM
- EC50 ([2]; Homo sapiens, Table 4 summary, Small cell lung cancer, read-out: EC50): 0.004 nM
- Cell Count Activity Area ([2]; scale 0-10): 3.05
- Relative cell count (%) Mean ([3]; 1.00E+00 microM): 58.7%
- Relative cell count (%) Mean ([3]; 1.00E−01 microM): 65.6%
- Relative cell count (%) Mean ([3]; 1.00E−02 microM): 68.6%
- Relative cell count (%) Mean ([3]; 1.00E−03 microM): 73.7%
- Relative cell count (%) Mean ([3]; 1.01E−04 microM): 89.1%
- Relative cell count (%) Mean ([3]; 3.16E−01 microM): 55.1%
- Relative cell count (%) Mean ([3]; 3.17E−02 microM): 63.2%
- Relative cell count (%) Mean ([3]; 3.17E−03 microM): 71.6%
- Relative cell count (%) Mean ([3]; 3.18E−04 microM): 79.6%
- Relative cell count (%) Mean ([3]; 3.18E−05 microM): 83.2%
- EC50 [3, 7]: 2.07 nM
- GI50 [3, 8]: 24.1 nM
- IC50 [3, 9]: > 1000 nM
- Cell Count Activity Area ([3]; scale 0-10): 2.30
- EC50 ([4]; Homo sapiens, 72 h, SNU-5, 3-day incubation, read-out: Cell Count EC50): 2.05 nM
- GI50 ([4]; Homo sapiens, 72 h, SNU-5, 3-day incubation, read-out: Cell Count GI50): 23.8 nM
- IC50 ([4]; Homo sapiens, 72 h, SNU-5, 3-day incubation, read-out: Cell Count IC50): > 1000 nM
- Cell Count Activity Area ([4]; SNU-5, scale 0-10): 2.14
- Relative cell count (%) Mean ([4]; 1.00E+00 microM): 62.8%
- Relative cell count (%) Mean ([4]; 1.00E−01 microM): 65.7%
- Relative cell count (%) Mean ([4]; 1.00E−02 microM): 73.2%
- Relative cell count (%) Mean ([4]; 1.00E−03 microM): 84.5%
- Relative cell count (%) Mean ([4]; 1.01E−04 microM): 95.3%
- Relative cell count (%) Mean ([4]; 3.16E−01 microM): 64.0%
- Relative cell count (%) Mean ([4]; 3.17E−02 microM): 65.8%
- Relative cell count (%) Mean ([4]; 3.17E−03 microM): 77.6%
- Relative cell count (%) Mean ([4]; 3.18E−04 microM): 91.2%
- Relative cell count (%) Mean ([4]; 3.18E−05 microM): 96.3%
- EC50 ([5]; Homo sapiens): 650 nM
- EC50 ([5]; Homo sapiens, OVCAR-3, 72 h, read-out: Cell Count EC50): 646 nM
- GI50 ([5]; Homo sapiens, OVCAR-3, 72 h, read-out: Cell Count GI50): 65.8 nM
- IC50 ([5]; Homo sapiens, OVCAR-3, 72 h, read-out: Cell Count IC50): > 1000 nM
- Cell Count Activity Area ([5]; OVCAR3, scale 0-10): 2.43
- Relative cell count (%) Mean ([5]; 1.00E+00 microM): 61.8%
- Relative cell count (%) Mean ([5]; 1.00E−01 microM): 72.8%
- Relative cell count (%) Mean ([5]; 1.00E−02 microM): 85.0%
- Relative cell count (%) Mean ([5]; 1.00E−03 microM): 90.2%
- Relative cell count (%) Mean ([5]; 1.01E−04 microM): 93.3%
- Relative cell count (%) Mean ([5]; 3.16E−01 microM): 61.7%
- Relative cell count (%) Mean ([5]; 3.17E−02 microM): 79.9%
- Relative cell count (%) Mean ([5]; 3.17E−03 microM): 85.2%
- Relative cell count (%) Mean ([5]; 3.18E−04 microM): 89.7%
- Relative cell count (%) Mean ([5]; 3.18E−05 microM): 106.9%
- EC50 ([6]; Homo sapiens, SK-NEP-1, 72 h, read-out: Cell Count EC50): 0.706 nM
- GI50 ([6]; Homo sapiens, SK-NEP-1, 72 h, read-out: Cell Count GI50): 0.747 nM
- IC50 ([6]; Homo sapiens, SK-NEP-1, 72 h, read-out: Cell Count IC50): 2.42 nM
- Cell Count Activity Area ([6]; SK-NEP-1, scale 0-10): 4.35
- Relative cell count (%) Mean ([6]; 1.00E+00 microM): 35.6%
- Relative cell count (%) Mean ([6]; 1.00E−01 microM): 38.6%
- Relative cell count (%) Mean ([6]; 1.00E−02 microM): 45.3%
- Relative cell count (%) Mean ([6]; 1.00E−03 microM): 63.5%
- Relative cell count (%) Mean ([6]; 1.01E−04 microM): 100.0%
- Relative cell count (%) Mean ([6]; 3.16E−01 microM): 35.6%
- Relative cell count (%) Mean ([6]; 3.17E−02 microM): 40.0%
- Relative cell count (%) Mean ([6]; 3.17E−03 microM): 48.8%
- Relative cell count (%) Mean ([6]; 3.18E−04 microM): 83.9%
- Relative cell count (%) Mean ([6]; 3.18E−05 microM): 99.4%
